Measurements published in patent US8163737B2 (Vertex Pharmaceuticals Incorporated, priority 2006, dated 2012).

Columns and labels:
endogenous CGRP receptor = endogenous CGRP receptor (Homo sapiens, UniProt O60894+Q16602); experiment: CGRP functional antagonism using SK-N-MC-BLA (4C10), β-lactamase transcriptional reporter assay; assay type: cell-based; conditions: SK-N-MC (4C10) cells, inhibition of β-lactamase expression in the presence of 200 pM CGRP
[1] = molecular target: T1, CGRP receptor (SK-N-MC membrane) (Homo sapiens, UniProt O60894+Q16602); experiment: I125-CGRP binding displacement assay on purified SK-N-MC membrane
T1 construct: Purified SK-N-MC membrane was purchased from Perkin Elmer; purchased Perkin Elmer; host or cells: SK-N-MC membrane
Experimental: Purified SK-N-MC membrane was purchased from Perkin Elmer. The membrane was thawed quickly and placed on ice. The compounds were diluted with CGRP binding solution (25 mM Tris-HCl, pH7.4, 5 mM MgCl2, 0.1% BSA and 0.05% Tween). The membrane was diluted 1:20 with the binding solution and homogenized with Tissue Matster-50 Homogenizer (Omni International) for 30 sec. The homogenized membrane was added to compounds in the binding solution. […] After 2 hour incubation at room temperature, the reaction was stopped by rapid filtration through 0.5% PEI treated GF/C filter plate (Perkin Elmer) and the filter plate was washed with ice-cold washing solution (50 mM Tris HCl, pH7.4, 5 mM MgCl2 and 0.1% BSA) using cell harvestor (Tomtec). The radioactivity of the filter plates were read on Topcount (Packard). The nonspecific binding was determined in the control reaction where 1 uM unlabelled CGRP was preincubated with the membrane prior to I125-CGRP addition. The total binding was determined in the control reaction of the membrane and I125-CGRP in the absence of compound. The percent displacement of I125-CGRP with compounds was calculated using nonspecific and total binding controls. The curve fitting was carried out using MOD3.

T1 sequence (Q16602 23-461): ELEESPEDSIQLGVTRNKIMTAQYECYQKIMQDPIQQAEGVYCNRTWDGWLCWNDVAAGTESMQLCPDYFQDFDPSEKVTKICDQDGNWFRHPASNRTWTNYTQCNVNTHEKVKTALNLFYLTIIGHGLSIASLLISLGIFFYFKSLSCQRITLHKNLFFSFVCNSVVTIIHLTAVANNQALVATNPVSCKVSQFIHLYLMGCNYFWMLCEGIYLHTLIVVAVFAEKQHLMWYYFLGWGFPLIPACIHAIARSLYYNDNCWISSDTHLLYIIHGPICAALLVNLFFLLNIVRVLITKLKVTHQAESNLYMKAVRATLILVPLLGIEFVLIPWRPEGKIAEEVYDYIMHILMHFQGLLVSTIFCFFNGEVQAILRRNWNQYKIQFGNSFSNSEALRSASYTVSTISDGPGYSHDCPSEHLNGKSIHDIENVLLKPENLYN
T1 sequence (O60894 27-148): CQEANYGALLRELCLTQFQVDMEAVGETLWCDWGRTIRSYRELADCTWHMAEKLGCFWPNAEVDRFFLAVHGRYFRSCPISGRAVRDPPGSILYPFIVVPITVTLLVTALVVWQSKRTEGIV
endogenous CGRP receptor, sequence (Q16602 23-461): as the sequence (Q16602 23-461) above
endogenous CGRP receptor, sequence (O60894 27-148): as the sequence (O60894 27-148) above

IC50 (endogenous CGRP receptor)	Ki [1]	SMILES
< 1000 nM	< 1000 nM	CC(C)(C)CCN1C(=O)C(CC(=O)N2CCC(N3CCc4ccccc4NC3=O)CC2)SC1c1ccccc1F (centres unmarked) [Compound 244]
< 1000 nM	> 5000 nM	Cc1cc(C2SC(CC(=O)N3CCC(n4cc(-c5ccccc5)[nH]c4=O)CC3)C(=O)N2CCC(C)C)cc2cn[nH]c12 (centres unmarked) [Compound 248]
< 1000 nM	< 1000 nM	CC(C)CCN1C(=O)C(CC(=O)N2CCC(N3Cc4ccccc4NC3=O)CC2)SC1c1c(F)cccc1C(F)(F)F (centres unmarked) [Compound 256]
< 1000 nM	< 1000 nM	CC(C)CCN1C(=O)C(CC(=O)N2CCC(n3cc4ccccc4nc3=O)CC2)SC1c1ccccc1 (centres unmarked) [Compound 259]
< 1000 nM	< 1000 nM	CC(C)CCN1C(=O)C(CC(=O)N2CCC(N3CCc4ccccc4NC3=O)CC2)SC1c1ccccc1-n1ccnc1 (centres unmarked) [Compound 260]
< 1000 nM	< 1000 nM	N#Cc1ccccc1C1SC(CC(=O)N2CCC(N3Cc4ccccc4NC3=O)CC2)C(=O)N1CC1CCCCC1 (centres unmarked) [Compound 265]
< 1000 nM	< 1000 nM	CC(C)CCN1C(=O)C(CC(=O)N2CCC(N3Cc4ccccc4NC3=O)CC2)SC1c1ccccc1Br (centres unmarked) [Compound 268]
< 1000 nM	< 1000 nM	O=C(CC1SC(c2cccc(F)c2F)N(CC2CCCCC2)C1=O)N1CCC(N2CCc3ccccc3NC2=O)CC1 (centres unmarked) [Compound 279]
1000 to 5000 nM	< 1000 nM	COc1ccc(C2SC(CC(=O)N3CCC(N4Cc5ccccc5NC4=O)CC3)C(=O)N2CCC(C)C)c(F)c1 (centres unmarked) [Compound 283]
1000 to 5000 nM	1000 to 5000 nM	O=C(CC1SC(c2ccccc2)N(c2ccc3[nH]ncc3c2)C1=O)N1CCC(N2Cc3ccccc3NC2=O)CC1 (centres unmarked) [Compound 287]
< 1000 nM	< 1000 nM	CC(C)CCN1C(=O)C(CC(=O)N2CCC(n3c(=O)[nH]c4ccccc43)CC2)SC1c1ccccc1-n1ccnc1 (centres unmarked) [Compound 289]
< 1000 nM	< 1000 nM	CC(C)(C)CCN1C(=O)C(CC(=O)N2CCC(n3c(=O)[nH]c4ccccc43)CC2)SC1c1ccccc1-n1ccnc1 (centres unmarked) [Compound 295]
< 1000 nM	< 1000 nM	CC(C)(C)CCN1C(=O)C(CC(=O)N2CCC(n3c(=O)[nH]c4ccccc43)CC2)S[C@H]1c1ccccc1N1CCC(O)CC1 (some centres unmarked) [Compound 296]
< 1000 nM	< 1000 nM	CC(C)(C)CCN1C(=O)C(CC(=O)N2CCC(n3c(=O)[nH]c4ccccc43)CC2)S[C@H]1c1ccccc1N1CCC(O)CC1 (some centres unmarked) [Compound 301]
> 5000 nM	> 5000 nM	CC(C)(C)CCN1C(=O)C(CC(=O)N2CCC(N3Cc4ccccc4NC3=O)CC2)SC1c1ncc[nH]1 (centres unmarked) [Compound 306]
< 1000 nM	< 1000 nM	CN1CCN(c2ccccc2C2N(CCC(C)(C)C)C(=O)C(CC(=O)N3CCC(N4Cc5ccccc5NC4=O)CC3)[S+]2[O-])CC1 (centres unmarked) [Compound 307]
< 1000 nM	< 1000 nM	CC(C)(C)CCN1C(=O)C(CC(=O)N2CCC(N3Cc4ccccc4NC3=O)CC2)SC12CCCc1ccccc12 (centres unmarked) [Compound 315]
1000 to 5000 nM	< 1000 nM	CC(C)(C)CCN1C(=O)C(CC(=O)N2CCC(N3Cc4ccccc4NC3=O)CC2)SC12CCc1ccccc12 (centres unmarked) [Compound 317]
< 1000 nM	< 1000 nM	CN1CCN(c2c(F)cccc2C2SC(CC(=O)N3CCC(N4CCc5ccccc5NC4=O)CC3)C(=O)N2CCC(C)(C)C)CC1 (centres unmarked) [Compound 324]
> 5000 nM	> 5000 nM	CC(C)N1CCN(c2c(F)cccc2C2SC(CC(=O)N3CCC(N4CCc5ccccc5NC4=O)CC3)C(=O)N2CCC(C)(C)C)CC1 (centres unmarked) [Compound 340]

Continued, molecule first:

SMILES	IC50 (endogenous CGRP receptor)	Ki [1]
CC(C)(C)N1C(=O)C(CC(=O)N2CCC(N3Cc4ccccc4NC3=O)CC2)SC1c1ccccc1 (centres unmarked) [Compound 251]	> 5000 nM	1000 to 5000 nM
CC(C)N1C(=O)C(CC(=O)N2CCC(N3Cc4ccccc4NC3=O)CC2)SC1c1ccccc1 (centres unmarked) [Compound 255, 3,4-Dihydro-3-(1-(2-(3-isopropyl-4-oxo-2-phenylthiazolidin-5-yl)acetyl)piperidin-4-yl)quinazolin-2(1H)-one]	1000 to 5000 nM	< 1000 nM
CN(C)c1ccccc1C1SC(CC(=O)N2CCC(N3CCc4ccccc4NC3=O)CC2)C(=O)N1CCC(C)(C)C (centres unmarked) [Compound 263]	< 1000 nM	< 1000 nM
O=C(CC1SC(c2ccccc2)N(CC2CCCCC2)C1=O)N1CCC(N2Cc3ccccc3NC2=O)CC1 (centres unmarked) [Compound 264]	< 1000 nM	< 1000 nM
CC(C)CCN1C(=O)C(CC(=O)N2CCC(N3Cc4ccccc4NC3=O)CC2)SC1c1ccccn1 (centres unmarked) [Compound 266]	< 1000 nM	< 1000 nM
O=C(CC1SC(c2ccccc2)N(CC2CC2)C1=O)N1CCC(N2Cc3ccccc3NC2=O)CC1 (centres unmarked) [Compound 271]	< 1000 nM	< 1000 nM
O=C(CC1SC(c2ccccc2)N(Cc2cccnc2)C1=O)N1CCC(N2Cc3ccccc3NC2=O)CC1 (centres unmarked) [Compound 278]	< 1000 nM	< 1000 nM
Cc1cc(C2SC(CC(=O)N3CCC(N4Cc5ccccc5NC4=O)CC3)C(=O)N2CCC(C)C)cc2cn[nH]c12 (centres unmarked) [Compound 282]	< 1000 nM	< 1000 nM
COc1ccc(C2SC(CC(=O)N3CCC(n4cc(-c5ccccc5)[nH]c4=O)CC3)C(=O)N2CCC(C)C)cc1 (centres unmarked) [Compound 286]	1000 to 5000 nM	> 5000 nM
CCN1CCC2(CC1)SC(CC(=O)N1CCC(N3CCc4ccccc4NC3=O)CC1)C(=O)N2CCC(C)(C)C (centres unmarked) [Compound 288]	< 1000 nM	< 1000 nM
CC(C)CCN1C(=O)C(CC(=O)N2CCC(n3c(=O)[nH]c4ccccc43)CC2)S[C@H]1c1ccccc1N1CCC(O)CC1 (some centres unmarked) [Compound 290]	< 1000 nM	< 1000 nM
CC(C)(C)CCN1C(=O)C(CC(=O)N2CCC(n3c(=O)[nH]c4ccccc43)CC2)SC1c1ccccc1-n1cccn1 (centres unmarked) [Compound 297]	< 1000 nM	< 1000 nM
CN(C)c1ccccc1C1SC(CC(=O)N2CCC(n3c(=O)[nH]c4ccccc43)CC2)C(=O)N1CCC(C)(C)C (centres unmarked) [Compound 299]	< 1000 nM	< 1000 nM
CN1CCN(c2ccccc2C2SC(CC(=O)N3CCC(n4c(=O)[nH]c5ccccc54)CC3)C(=O)N2CCC(C)(C)C)CC1 (centres unmarked) [Compound 302]	< 1000 nM	< 1000 nM
CN1CCN(c2ccccc2C2SC(CC(=O)N3CCC(c4cc5ccccc5[nH]c4=O)CC3)C(=O)N2CCC(C)(C)C)CC1 (centres unmarked) [Compound 303]	< 1000 nM	< 1000 nM
CN1CCN(c2ccccc2C2SC(CC(=O)N3CCC4(CC3)CC(=O)Nc3ccccc3O4)C(=O)N2CCC(C)(C)C)CC1 (centres unmarked) [Compound 328]	< 1000 nM	< 1000 nM
CN1CCN(c2ccccc2C2SC(CC(=O)N3CCC4(CC3)CNC(=O)c3ccccc3O4)C(=O)N2CCC(C)(C)C)CC1 (centres unmarked) [Compound 330]	1000 to 5000 nM	< 1000 nM
CC(C)CCN1C(=O)C(CC(=O)N2CCC3(CC2)CC(=O)c2ccccc2O3)SC1c1ccccc1N1CCN(C)CC1 (centres unmarked) [Compound 331]	< 1000 nM	< 1000 nM
CC(C)N1CCN(c2c(F)cccc2C2SC(CC(=O)N3CCC(n4c(=O)[nH]c5ncccc54)CC3)C(=O)N2CCC(C)(C)C)CC1 (centres unmarked) [Compound 341]	< 1000 nM	< 1000 nM
CCN1CCN(c2c(F)cccc2C2SC(CC(=O)N3CCC(N4CCc5ccccc5NC4=O)CC3)C(=O)N2CCC(C)(C)C)CC1 (centres unmarked) [Compound 345]	< 1000 nM	< 1000 nM
